From patent US20240228500A1, “THERAPEUTIC CONJUGATES” (TOTUS MEDICINES INC., priority 2021, published 2024)

system: NanoLuc fused to the biological target; assay: NanoBRET binding assay of ARCS in transfected HEK293 cells with washout; design: species or system human; conditions: HEK293 cells transiently transfected with NanoLuc fusion DNA, compound incubated overnight, cells washed 5x in PBS, tracer added
Description: Human embryonic kidney 293-H (HEK 293, Gibco 293-H, #11631017) cell lines were maintained in Dulbecco's Modified Eagle Medium, high glucose, pyruvate (DMEM, Gibco, #11995065) supplemented with 10% fetal bovine serum (FBS, Gibco, #10082147) and 1× penicillin-streptomycin (100× solution, Gibco, #15140148) at 37° C. and 5% CO2 in a water-saturated incubator. Cells were trypsinized using 0.05% or 0.25% Trypsin-EDTA solution (Trypsin-EDTA, phenol red, Gibco, #25200056 (0.25%) or #25300054). Opti-MEM media supplemented with 10% fetal bovine serum (Opti-MEM I reduced serum media, no phenol red, Gibco, #11058021) was used for culturing cells overnight for NanoBRET readout experiments.
HEK293 cells were then cultivated appropriately prior to assay. The medium from cell flask was removed via aspiration, washed 1× with PBS followed by aspiration, trypsinized, and cells were allowed to dissociate from the flask. Trypsin is neutralized using growth medium and cells were pelleted via centrifugation at 200×g for 5 minutes. The medium was aspirated and the cells were resuspended into a single cell suspension using Opti-MEM I supplemented with 10% FBS. The cell density was adjusted to 2×10^5/mL in Opti-MEM I supplemented with 10% FBS in a sterile, conical tube. The cells were transfected and aliquoted directly in a 96-well plate for the NanoBRET assay the next day, and therefore, the cells were cultured overnight in Opti-MEM. The cells were also transfected in bulk and dispensed into a 96-well plate to allow cells to adhere to the plate overnight, thereby enabling washout studies.
The lipid:DNA complexes were then prepared as follows: A 10 μg/mL solution of DNA was prepared in Opti-MEM without serum. This solution contains the following ratios of carrier DNA and DNA encoding NanoLuc fused to the biological target. Serial dilution steps may be warranted to accurately dilute the NanoLuc fusion DNA. Added, in order, were the following reagents to a sterile polystyrene test tube: 1 mL of Opti-MEM without phenol red; 9.0 μg/mL of carrier DNA; 1.0 μg/mL of NanoLuc fusion DNA (for some targets, the amount is less). The reagents were mixed thoroughly.
[…] was added into each mL of DNA mixture to form lipid:DNA complex. […] It was mixed by pipetting up and down 5-10 times and incubated at room temperature for 20 minutes to allow complexes to form. 1 part (e.g. 1 mL) of lipid:DNA complex was mixed with 20 parts (e.g. 20 mL) of HEK293 cells in suspension at 2×10^5/mL and mixed gently by pipetting up and down 5 times in a sterile, conical tube. Larger or smaller bulk transfections were scaled accordingly, using this ratio. 100 μL cells+lipid:DNA complex was dispensed into a sterile, tissue-culture treated 96-well plate (20,000 cells/well), and incubated at least 16 hours to allow expression. The cells were incubated in a 37° C.+5% CO2 incubator for >16 hrs. A serially diluted inhibitor (i.e. ARCS) or test compound was prepared at 100× final concentration in 100% DMSO. The serially diluted inhibitor stock was prepared in PCR plates. 1 μL per well of 100× serially diluted inhibitor/test compound was added to the cells in 96-well plates that have been transiently transfected overnight and mixed by tapping the plate by hand. The plate was incubated at 37° C.+5% CO2 incubator overnight. A 1× solution of substrate mix (500× stock) and appropriate concentration of tracer was prepared in Opti-Mem. The cells were washed by setting a plate washer to the 96 well plate 5× in PBS pH 7.4 by adding 200 μL PBS each time. The cells were then incubated at 37° C. for 2 hours. 100 μL of the 1× Substrate-Tracer solution was added and the 96 well plate was gently tapped to mix. The plate on plate reader is read every hour for the next 6 hours.

Compound	Binding (Percent inhibition)
C=C(C)C(=O)NCC(=O)N1CCN(Cc2cc3c(N4CCOCC4)nc(-c4cnc(NC(=O)OC)cc4C(F)(F)F)nn3c2)CC1 [Compound 1-201]	++++ (++++ >80%)
COC(=O)Nc1cc(C(F)(F)F)c(-c2nc(N3CCOCC3)c3cc(CN4CCN(C(=O)CNC(=O)/C=C/CN5CCOCC5)CC4)cn3n2)cn1 [Compound 1-202]	++++ (++++ >80%)
COC(=O)Nc1cc(C(F)(F)F)c(-c2nc(N3CCOCC3)c3cc(CN4CCN(C(=O)CNC(=O)/C=C/CN5CCN(C)CC5)CC4)cn3n2)cn1 [Compound 1-203]	++ (++ 20-50%)
COC(=O)Nc1cc(C(F)(F)F)c(-c2nc(N3CCOCC3)c3cc(CN4CCN(C(=O)CNC(=O)/C=C/CN5CC(F)(F)C5)CC4)cn3n2)cn1 [Compound 1-204]	++++ (++++ >80%)
COC(=O)Nc1cc(C(F)(F)F)c(-c2nc(N3CCOCC3)c3cc(CN4CCN(C(=O)CNC(=O)/C=C/CF)CC4)cn3n2)cn1 [Compound 1-206]	+ (+ <20%)
C=C(F)C(=O)NCC(=O)N1CCN(Cc2cc3c(N4CCOCC4)nc(-c4cnc(NC(=O)OC)cc4C(F)(F)F)nn3c2)CC1 [Compound 1-212]	++++ (++++ >80%)
COC(=O)Nc1cc(C(F)(F)F)c(-c2nc(N3CCOCC3)c3cc(CN4CCN(C(=O)CNC(=O)/C=C/CN5CC6(COC6)C5)CC4)cn3n2)cn1 [Compound 1-213]	+ (+ <20%)
COC(=O)Nc1cc(C(F)(F)F)c(-c2nc(N3CCOCC3)c3cc(CN4CCN(C(=O)CNC(C)=O)CC4)cn3n2)cn1 [Compound 1-214]	++++ (++++ >80%)
C#CCCC(=O)Nc1ccc(-c2nc(N3CCOCC3)c3cc(CN4CCN(C(=O)CNC(=O)C=C)CC4)cn3n2)cc1 [Compound 1-215]	+ (+ <20%)
COC(=O)Nc1cc(C(F)(F)F)c(-c2nc(N3CCOCC3)c3cc(CN4CCN(C(=O)CNC(=O)/C=C/CN5CCCCC5)CC4)cn3n2)cn1 [Compound 1-217]	++ (++ 20-50%)
C=CC(=O)NCC(=O)N1CC2(CN(Cc3cc4c(N5CCOCC5)nc(-c5cnc(NC(=O)OC)cc5C(F)(F)F)nn4c3)C2)C1 [Compound 1-223]	++ (++ 20-50%)
C=CC(=O)N1CCC(C(=O)N2CCN(Cc3cc4c(N5CCOCC5)nc(-c5cnc(NC(=O)OC)cc5C(F)(F)F)nn4c3)CC2)CC1 [Compound 1-304]	++++ (++++ >80%)
C=CC(=O)Nc1cccc(C(=O)N2CCN(Cc3cc4c(N5CCOCC5)nc(-c5cnc(NC(=O)OC)cc5C(F)(F)F)nn4c3)CC2)c1 [Compound 1-306]	++ (++ 20-50%)
C=CC(=O)N1CCC[C@@H]1C(=O)N1CCN(Cc2cc3c(N4CCOCC4)nc(-c4cnc(NC(=O)OC)cc4C(F)(F)F)nn3c2)CC1 [Compound 1-308]	++++ (++++ >80%)
C=CC(=O)N1CCC[C@H]1C(=O)N1CCN(Cc2cc3c(N4CCOCC4)nc(-c4cnc(NC(=O)OC)cc4C(F)(F)F)nn3c2)CC1 [Compound 1-309]	++++ (++++ >80%)
C=CC(=O)N(C)c1cccc(C(=O)N2CCN(Cc3cc4c(N5CCOCC5)nc(-c5cnc(NC(=O)OC)cc5C(F)(F)F)nn4c3)CC2)c1 [Compound 1-312]	++ (++ 20-50%)
C=CC(=O)N[C@H](C)C(=O)N1CCN(Cc2cc3c(N4CCOCC4)nc(-c4cnc(NC(=O)OC)cc4C(F)(F)F)nn3c2)CC1 [Compound 1-313]	++++ (++++ >80%)
C=C(OC)C(=O)NCC(=O)N1CCN(Cc2cc3c(N4CCOCC4)nc(-c4cnc(NC(=O)OC)cc4C(F)(F)F)nn3c2)CC1 [Compound 1-314]	++++ (++++ >80%)
C=CC(=O)N[C@@H](C)C(=O)N1CCN(Cc2cc3c(N4CCOCC4)nc(-c4cnc(NC(=O)OC)cc4C(F)(F)F)nn3c2)CC1 [Compound 1-315]	++++ (++++ >80%)
